Experimental data as given in paper PMC12326981, “Novel C5α-substituted carbapenems enhance Mycobacterium abscessus killing via selective target binding and reduced hydrolysis by BlaMab” (Antimicrobial Agents and Chemotherapy, 2025).
Marks after values point to notes of the source that are not given here.

Experiments:
[1] = target: LDT4 (Mycobacteroides abscessus, UniProt B1MKW1); assay: Mass spectrometric analysis of acyl-enzyme adducts; format: binding, Mycobacterium abscessus; details: LDT4 (32,567); 1:10 molar ratio, 2 h; accuracy ±5 Da
Sequence of LDT4 (B1MKW1 entry or part of it): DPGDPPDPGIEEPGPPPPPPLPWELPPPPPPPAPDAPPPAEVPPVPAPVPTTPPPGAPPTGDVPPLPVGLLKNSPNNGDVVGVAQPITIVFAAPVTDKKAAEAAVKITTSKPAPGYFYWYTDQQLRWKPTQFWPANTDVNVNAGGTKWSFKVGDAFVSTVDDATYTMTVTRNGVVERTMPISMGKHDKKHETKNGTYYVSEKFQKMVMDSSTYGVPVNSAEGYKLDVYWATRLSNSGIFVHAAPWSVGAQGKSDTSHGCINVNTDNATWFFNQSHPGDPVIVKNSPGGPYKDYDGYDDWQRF
Experimental: (§1) Truncated sequences of BlaMab (Δ1–30 blaMab), LDT1–5, DDC, PBP B, PonA2, and PBP-lipo (Δ1–41) were synthesized by Celtek Biosciences (Franklin, TN) and cloned into the pET28(a)+ vector. Purification of LDTs and PBPs was carried out as previously described ([15], [16], [20]). Briefly, clones were transformed into Escherichia coli BL21 (DE3), and protein expression was induced with 0.25 mM isopropyl β-d-1-thiogalactopyranoside. Cell pellets were resuspended in buffer containing 50 mM Tris (pH 8.0), 400 mM sodium chloride, and 1 mM Tris(2-carboxyethyl)phosphine hydrochloride and lysed by sonication. After centrifugation, the supernatant was purified using a His Prep FF column and eluted with 500 mM imidazole.
(§2) The purified proteins were incubated at room temperature with JDB/NA-1-157 and JDB/NA-1-208 at a molar ratio of 1:10 for 2 h. A quadrupole time-of-flight mass spectrometer (Waters Synapt-G2-Si) with electrospray ionization and a Waters Acquity H-Class UPLC system were used to analyze the samples. The liquid chromatography conditions were as follows: a BEH C18 column (1.7 µm, 2.1 × 50 mm) and a mobile phase consisting of 0.1% formic acid in water and 0.1% formic acid in acetonitrile, with a gradient elution from 10% to 90% acetonitrile over 11 min at a flow rate of 0.5 mL/min. The MS settings were optimized with a capillary voltage of 3 kV, a sampling cone voltage of 35 V, and source and desolvation temperatures of 100°C and 500°C, respectively. Gas flow rates were 100 L/h for the cone and 800 L/h for desolvation. The mass accuracy was maintained at ±5 Da.

[2] = target: LDT3 (Mycobacteroides abscessus, UniProt B1MHQ4); assay: Mass spectrometric analysis of acyl-enzyme adducts; format: binding, Mycobacterium abscessus; details: LDT3 (44,795); 1:10 molar ratio, 2 h; accuracy ±5 Da
Sequence of LDT3 (B1MHQ4 entry or part of it): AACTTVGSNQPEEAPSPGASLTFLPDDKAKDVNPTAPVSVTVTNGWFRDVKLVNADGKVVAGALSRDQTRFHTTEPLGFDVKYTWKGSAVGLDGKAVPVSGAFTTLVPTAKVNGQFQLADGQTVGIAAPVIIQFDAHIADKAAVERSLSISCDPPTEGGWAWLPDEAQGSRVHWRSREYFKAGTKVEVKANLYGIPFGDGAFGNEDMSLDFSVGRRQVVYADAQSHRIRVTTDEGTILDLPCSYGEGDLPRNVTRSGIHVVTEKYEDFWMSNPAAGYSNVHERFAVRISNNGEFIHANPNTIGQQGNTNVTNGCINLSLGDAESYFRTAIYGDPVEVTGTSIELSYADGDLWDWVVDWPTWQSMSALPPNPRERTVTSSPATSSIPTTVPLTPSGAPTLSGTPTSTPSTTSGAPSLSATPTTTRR
Experimental: as §1, §2

[3] = target: BlaMab (Mycobacteroides abscessus, UniProt B1MCI3); assay: Mass spectrometric analysis of acyl-enzyme adducts; format: binding; design: key to Mass of protein after incubation (mass shift): (.) indicates no detectable binding; details: for adduct formation with BlaMab: mass spectrometry
Sequence of BlaMab (B1MCI3 entry or part of it): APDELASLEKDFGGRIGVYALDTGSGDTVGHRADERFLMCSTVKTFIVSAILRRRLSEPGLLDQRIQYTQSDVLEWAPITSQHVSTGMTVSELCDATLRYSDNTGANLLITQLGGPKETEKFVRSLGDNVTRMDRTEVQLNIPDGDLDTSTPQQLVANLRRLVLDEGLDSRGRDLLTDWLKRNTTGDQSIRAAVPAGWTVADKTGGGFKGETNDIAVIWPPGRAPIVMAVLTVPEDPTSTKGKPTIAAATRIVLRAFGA
Experimental: as §1, §2

[4] = system: Mab ATCC 19977; assay: MIC testing with drugs pre-incubated in 7H9 broth (effect of drug instability); format: cell-based, Mycobacterium abscessus; details: for MIC: Mycobacteroides abscessus, ATCC19977; for MIC rise after 24 and 48 h incubation vs nonincubated: drug incubated 24 and 48 h
Experimental: MICs were determined in duplicate following Clinical Laboratory Standards Institute ([52]) guidelines using Middlebrook 7H9 broth supplemented with 10% (vol/vol) oleic acid-albumin-dextrose-catalase (OADC) and 0.05% (vol/vol) Tween 80, with an inoculum of 5 × 10⁵ CFU/mL. MIC testing of two C5α-substituted carbapenems was conducted both individually and in combination with cephalosporins (cefuroxime and ceftaroline), penicillins (amoxicillin), or BLIs (avibactam or durlobactam + sulbactam). Avibactam, durlobactam, cefuroxime, ceftaroline, and amoxicillin were fixed at concentrations of 4, 1, 2, 4, and 4 mg/L, respectively. Amoxicillin was combined with 4 mg/L avibactam, as it is highly susceptible to hydrolysis by BlaMab ([12], [15], [25]). The MIC was defined as the lowest antibiotic concentration that inhibited visible bacterial growth following 48 h of incubation at 30°C.

[5] = target: PonA2 (Mycobacteroides abscessus, UniProt B1MFV7); assay: Apparent inhibition constant (nitrocefin, Dixon plot); format: biochemical, Mycobacterium abscessus; details: Ki,app
Sequence of PonA2 (B1MFV7 entry or part of it): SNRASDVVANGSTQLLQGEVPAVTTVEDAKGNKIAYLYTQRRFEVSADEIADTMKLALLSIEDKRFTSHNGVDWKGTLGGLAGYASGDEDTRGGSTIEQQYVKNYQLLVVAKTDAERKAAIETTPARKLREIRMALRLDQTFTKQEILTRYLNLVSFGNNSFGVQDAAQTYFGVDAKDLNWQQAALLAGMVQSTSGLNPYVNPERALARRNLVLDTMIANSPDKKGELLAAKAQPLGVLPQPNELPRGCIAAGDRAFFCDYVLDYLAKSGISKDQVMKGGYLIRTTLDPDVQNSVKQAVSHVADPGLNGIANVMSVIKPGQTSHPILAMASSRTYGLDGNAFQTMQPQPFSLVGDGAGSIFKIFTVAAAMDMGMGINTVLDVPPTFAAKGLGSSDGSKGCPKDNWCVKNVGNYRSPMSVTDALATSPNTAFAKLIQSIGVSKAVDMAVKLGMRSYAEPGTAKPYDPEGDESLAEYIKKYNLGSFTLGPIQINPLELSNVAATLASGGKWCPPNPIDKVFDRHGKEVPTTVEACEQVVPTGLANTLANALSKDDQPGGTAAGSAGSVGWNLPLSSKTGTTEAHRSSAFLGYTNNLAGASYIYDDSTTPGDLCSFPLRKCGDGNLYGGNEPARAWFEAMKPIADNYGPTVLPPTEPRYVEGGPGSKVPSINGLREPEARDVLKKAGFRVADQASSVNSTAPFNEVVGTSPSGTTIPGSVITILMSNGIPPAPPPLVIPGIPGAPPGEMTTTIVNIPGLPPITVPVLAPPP
Experimental: (§3) Steady-state kinetic studies with JDB/NA-1-157 and JDB/NA-1-208 were performed using purified LDTs and PBPs, including LDT1–5, PBP-B, PBP-lipo, and D,D-carboxypeptidase. The assays were conducted on a BioTek Synergy2 multimode reader equipped with Gen5 software. To determine the Michaelis constant (Km^NCF) for each LDT and PBP, a wide range of NCF concentrations was tested, while the enzyme concentrations were fixed. Absorbance changes at 482 nm were monitored over 10 min. Steady-state kinetic parameters (Vmax and Km) were derived by fitting the experimental data to the Henri–Michaelis–Menten equation using nonlinear least-squares regression in GraphPad Prism version 9. The reaction velocity (v) at a given substrate concentration ([S]) was calculated using equation 2: […]
(§4) The apparent inhibition constants (Ki,app) for JDB/NA-1-157 and JDB/NA-1-208 were determined under the following conditions: an NCF concentration of 5 × Km, fixed concentrations of LDT or PBP enzymes, and varying concentrations of JDB/NA-1-157 and JDB/NA-1-208. Absorbance changes at 482 nm were monitored over a 30 min period for each inhibitor concentration. The data were linearized using a Dixon plot, which involves plotting the reciprocal of the absorbance change (1/ΔA) against the concentrations of JDB/NA-1-157 or JDB/NA-1-208. Apparent Ki,app values were derived from the intersection points on the Dixon plot and were subsequently corrected for substrate concentration and enzyme affinity using equation 3:
(§5) (3) Ki,app=observed Ki,app/1+[NCF]/Km NCF.

[6] = target: LDT1 (Mycobacteroides abscessus, UniProt B1MDC1); assay: as above; format: biochemical, Mycobacterium abscessus; details: Ki,app
Sequence of LDT1 (B1MDC1 entry or part of it): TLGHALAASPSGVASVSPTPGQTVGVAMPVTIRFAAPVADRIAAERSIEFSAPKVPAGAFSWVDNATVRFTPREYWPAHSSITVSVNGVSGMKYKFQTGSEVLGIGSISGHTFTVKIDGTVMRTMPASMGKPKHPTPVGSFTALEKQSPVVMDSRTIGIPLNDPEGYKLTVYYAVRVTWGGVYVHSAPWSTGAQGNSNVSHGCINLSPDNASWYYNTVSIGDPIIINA
Experimental: as §3, §4, §5

[7] = target: LDT2 (Mycobacteroides abscessus, UniProt B1MMQ4); assay: as above; format: biochemical, Mycobacterium abscessus; details: Ki,app
Sequence of LDT2 (B1MMQ4 entry or part of it): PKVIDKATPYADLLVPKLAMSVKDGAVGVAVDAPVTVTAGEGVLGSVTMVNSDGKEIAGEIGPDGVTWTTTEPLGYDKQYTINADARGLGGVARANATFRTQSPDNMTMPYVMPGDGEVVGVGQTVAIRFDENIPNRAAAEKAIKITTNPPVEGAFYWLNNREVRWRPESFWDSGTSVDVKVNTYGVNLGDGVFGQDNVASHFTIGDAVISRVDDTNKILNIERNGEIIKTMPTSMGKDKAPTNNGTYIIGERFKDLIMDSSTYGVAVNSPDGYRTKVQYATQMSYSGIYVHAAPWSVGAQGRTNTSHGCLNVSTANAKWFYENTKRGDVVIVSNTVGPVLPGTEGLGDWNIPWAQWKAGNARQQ
Experimental: as §3, §4, §5

[8] = target: T1, PBP-lipo (Mycobacteroides abscessus, UniProt B1MDC3); assay: Bocillin-FL competitive binding assay; details: Bocillin-FL competition, 1:10 molar ratio
T1 construct: made in house; host or cells: Escherichia coli BL21 (DE3)
T1 sequence (B1MDC3 entry or part of it): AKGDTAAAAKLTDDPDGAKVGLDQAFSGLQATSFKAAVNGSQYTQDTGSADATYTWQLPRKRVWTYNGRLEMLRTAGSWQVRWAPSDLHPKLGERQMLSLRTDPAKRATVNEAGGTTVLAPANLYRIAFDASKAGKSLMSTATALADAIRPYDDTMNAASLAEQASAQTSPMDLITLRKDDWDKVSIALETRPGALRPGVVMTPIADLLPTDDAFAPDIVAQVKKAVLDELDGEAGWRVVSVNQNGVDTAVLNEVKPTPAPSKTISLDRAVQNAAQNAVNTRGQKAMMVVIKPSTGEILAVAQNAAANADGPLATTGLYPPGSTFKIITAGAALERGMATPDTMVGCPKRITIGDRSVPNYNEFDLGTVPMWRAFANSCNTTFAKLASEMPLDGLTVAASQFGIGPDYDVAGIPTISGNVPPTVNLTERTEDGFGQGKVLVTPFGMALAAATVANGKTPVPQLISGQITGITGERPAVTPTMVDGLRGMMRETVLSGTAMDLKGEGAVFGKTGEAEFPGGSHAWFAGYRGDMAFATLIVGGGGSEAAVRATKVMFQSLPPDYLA
Experimental: The binding of JDB/NA-1-157 and JDB/NA-1-208 to PBP-lipo was assessed using a Bocillin-FL competitive assay as previously described ([25]). Briefly, purified PBP-lipo and the compounds (at a 1:10 molar ratio) were incubated in a buffer containing 10 mM sodium phosphate (pH 7.4) and 150 mM NaCl for 2 h at room temperature, followed by additional incubation with 1 µM Bocillin FL for 4 h at 37°C. Samples were boiled and analyzed by SDS-PAGE. The PBP-lipo:Bocilli complexes were detected via fluorescence at 488 nm using an Azure 300 gel imaging system. Band intensity was quantified using GelAnalyzer software.

[9] = system: DDC; assay: Mass spectrometric analysis of acyl-enzyme adducts; format: binding, Mycobacterium abscessus; design: key: (.) indicates no detectable binding; details: DDC (29,750); 1:10 molar ratio, 2 h; accuracy ±5 Da
Experimental: as §1, §2

[10] = target: LDT5 (Mycobacteroides abscessus, UniProt B1MHQ4); assay: Mass spectrometric analysis of acyl-enzyme adducts; format: binding, Mycobacterium abscessus; design: key: (.) indicates no detectable binding; details: LDT5 (28,220); 1:10 molar ratio, 2 h; accuracy ±5 Da
Sequence of LDT5 (B1MHQ4 entry or part of it): as the sequence (B1MHQ4 entry or part of it) above
Experimental: as §1, §2

[11] = drug incubated 6 h in 7H9 broth at 30°C
[12] = drug incubated 24 h in 7H9 broth at 30°C
[13] = drug incubated 48 h in 7H9 broth at 30°C

SMILES	Mass of protein after incubation (mass shift) [1]	Mass of protein after incubation (mass shift) [2]	adduct formation with BlaMab [3]	MIC [4, 11] [µg/mL]	MIC [4, 12] [µg/mL]	MIC [4, 13] [µg/mL]	MIC ([4]; no incubation of drug) [µg/mL]	MIC rise after 24 and 48 h incubation vs nonincubated [4]	Ki [5] [µM]	Ki [6] [µM]	Ki [7] [µM]	binding to PBP-lipo [8]	Mass of protein after incubation (mass shift) [9]	Mass of protein after incubation (mass shift) [10]	Mass of protein after incubation (mass shift) ([3]; BlaMab (28,433), 1:10 molar ratio, 2 h, room temperature, accuracy ±5 Da)
C[C@@H](O)[C@H]1C(=O)N2C(C(=O)O)=C(S[C@@H]3CN[C@H](C(=O)N(C)C)C3)C[C@]12C [JDB/NA-1-157]	32,950 (+383) Da	45,178 (+383) Da	formed a complex	0.25	2	2	0.25	fourfold	0.00782	7.98	0.13	form acyl-enzyme complexes	30,134 (+383) Da	28,219 (.)	–
CC[C@]12CC(S[C@@H]3CN[C@H](C(=O)N(C)C)C3)=C(C(=O)O)N1C(=O)[C@@H]2[C@@H](C)O [JDB/NA-1-208]	32,964 (+397) Da	45,194 (+397) Da	did not form an adduct	16	32	32	16	twofold	0.352	1.11	0.166	lacks binding	29,750 (.)	28,617 (+397) Da	28,434 (.)^b
